Structures can show the parent of a compound that is named as a salt. Where two headings read alike, the source gives them in different places. Positions of bridges follow the written chain, without caps; N, C: chain ends. Non-standard residues stand in square brackets, D forms with d. Residues, ends and D or L forms follow the SMILES beside them. Chains are numbered I, II in the order given. βAla = NCCC(=O)O
How the values were obtained:
[1] = system: 16HBE14o- human bronchial epithelial cells; assay type: cell-based; details: 48 h
Method: (§1) T24 human epithelial bladder cells, 16HBE14o- human bronchial epithelial cells and RAW264.7 mouse macrophages were plated at a density of 2.5 × 10^4 cells/well in 96-well microplates. The 16HBE14o- cells were previously incubated with coating solution (88% LHC basal medium, 10% bovine serum albumin, 30 µg/mL bovine collagen type I and 1% human fibronectin). Different concentrations of SET-M33 TFA, acetate and chloride were added 24 h after plating. Cells were grown for 48 h at 37 °C. Their viability was assessed by 3-(4,5-dimethylthiazol-2-yl)2,5-diphenyltetrazolium bromide (MTT) assay. EC50 values were obtained by dose-response variable slope analysis using GraphPad Prism 5.03 software (San Diego, CA, USA).

[2] = system: RAW264.7 mouse macrophages; assay type: cell-based; details: 48 h
Method: as §1

[3] = system: T24 human bladder epithelial cells; assay type: cell-based; details: 48 h
Method: as §1

[4] = system: CD1 mice; details: cited from earlier work; for signs of acute toxicity in vivo: scored not-observable, mild, severe
Method: (§2) Table 4 Signs of acute toxicity in vivo of the three SET-M33 salts. | column: 20 mg/kg; 25 mg/kg || Acute toxicity of SET-M33 chloride was tested in mice and compared with the acetate and TFA counter-ions. Ten animals per group (five males and five females) were injected with two doses of SET-M33 chloride, 20 and 30 mg/kg, known to be below the LD50 [7]. Signs of toxicity were scored as not-observable, mild and severe. SET-M33 chloride and SET-M33 acetate scored 100% not-observable (Table 4), unlike the TFA that scored 100% toxicity at 25 mg/kg, described as 33% severe and 66% mild.

[5] = system: E. coli TG-1; assay type: cell-based; details: TG-1, 24 h
Method: (§3) Antimicrobial susceptibility was assessed by determining the minimum inhibitory concentrations (MICs) of SET-[…] acetate and SET-[…] chloride against E. coli TG-1 and P. aeruginosa PAO-1, using the broth microdilution technique according to 2017 EUCAST guidelines. The MIC assay measures visible inhibition of bacterial growth after 24 h exposure of bacteria to antibiotic in Mueller-Hinton (MH) broth. Assays were performed in triplicate using a bacterial inoculum of 5 × 10^4 CFU/well in a final volume of 100 μL. The twofold antibiotic concentration ranged from 0.1 μM to 12 μM for both peptides. MICs were read after 24 h of incubation at 35 °C.

[6] = system: P. aeruginosa PAO-1; assay type: cell-based; details: PAO-1, 24 h
Method: as §3

[7] = system: CD1 mice; assay: Acute toxicity in mice; assay type: in vivo, mouse; details: for signs of acute toxicity in vivo: 10/group, monitored 96 h, scored not-observable, mild, severe; for share of animals scored not-observable for signs of toxicity: i.v. single dose, chloride 20 and 30 mg/kg, acetate 25 and 30 mg/kg
Method: as §2, with “Acute” for “Table 4 Signs of acute toxicity in vivo of the three SET-M33 salts. | column: 20 mg/kg; 25 mg/kg || Acute”
All animal experiments were conducted under the protocol approved by the Italian Ministry of Health at the Toscana Life Sciences Foundation animal facility in Siena, Italy (authorization n. 34/2016PR). Animals (10 CD1 mice/group, 20–22 g) were injected i.v. with SET-M33 acetate (group 1 and group 2) and SET-M33 chloride (group 3 and group 4), in a single dose. The doses were: group 1, 25 mg/kg SET-M33 acetate; group 2, 30 mg/kg SET-M33 acetate; group 3, 20 mg/kg SET-M33 chloride and group 4, 30 mg/kg SET-M33 chloride. Animals were monitored for 96 h. Signs of toxicity were checked four times a day by visual inspection and were scored as not-observable, mild and severe. Mice were weighed every day from arrival to the last day of the experiment. Animals with clear signs of distress, such as reduced mobility and weight loss greater than 20%, were anesthetized and sacrificed with carbon dioxide or by cervical dislocation.

SMILES | EC50 [1] [µM] | EC50 [2] [µM] | EC50 [3] [µM] | signs of acute toxicity in vivo ([4]; 25 mg/kg) | share of animals with mild signs of toxicity ([4]; 25 mg/kg) [%] | share of animals with severe signs of toxicity ([4]; 25 mg/kg) [%] | toxicity score (share of animals with signs of toxicity) ([4]; 25 mg/kg) [%] | MIC [5] [µM] | MIC [6] [µM] | signs of acute toxicity in vivo ([7]; 25 mg/kg i.v. single dose) | signs of acute toxicity in vivo ([7]; 30 mg/kg i.v. single dose) | share of animals scored not-observable for signs of toxicity [7] [%] | signs of acute toxicity in vivo ([4]; 20 mg/kg) | signs of acute toxicity in vivo ([7]; 20 mg/kg i.v. single dose)
CC[C@H](C)[C@H](NC(=O)[C@H](CCCCN)NC(=O)[C@@H](N)CCCCN)C(=O)N[C@@H](CCCNC(=N)N)C(=O)N[C@H](C(=O)N[C@@H](CCCNC(=N)N)C(=O)N[C@@H](CC(C)C)C(=O)N[C@@H](CO)C(=O)N[C@@H](C)C(=O)NCCCC[C@H](NC(=O)[C@H](C)NC(=O)[C@H](CO)NC(=O)[C@H](CC(C)C)NC(=O)[C@H](CCCNC(=N)N)NC(=O)[C@@H](NC(=O)[C@H](CCCNC(=N)N)NC(=O)[C@@H](NC(=O)[C@H](CCCCN)NC(=O)[C@@H](N)CCCCN)[C@@H](C)CC)C(C)C)C(=O)NCCCC[C@H](NC(=O)[C@H](CCCCNC(=O)[C@H](C)NC(=O)[C@H](CO)NC(=O)[C@H](CC(C)C)NC(=O)[C@H](CCCNC(=N)N)NC(=O)[C@@H](NC(=O)[C@H](CCCNC(=N)N)NC(=O)[C@@H](NC(=O)[C@H](CCCCN)NC(=O)[C@@H](N)CCCCN)[C@@H](C)CC)C(C)C)NC(=O)[C@H](C)NC(=O)[C@H](CO)NC(=O)[C@H](CC(C)C)NC(=O)[C@H](CCCNC(=N)N)NC(=O)[C@@H](NC(=O)[C@H](CCCNC(=N)N)NC(=O)[C@@H](NC(=O)[C@H](CCCCN)NC(=O)[C@@H](N)CCCCN)[C@@H](C)CC)C(C)C)C(=O)NCCC(=O)O)C(C)C [SET-M33 TFA] (I: H-KKIRVRLSAKK[βAla]-OH / II: H-KKIRVRLSAK / III: H-KKIRVRLSA / IV: H-KKIRVRLSA; amide I:10-IV:C, I:11-II:C, II:10-III:C) | 11.1 | 3.85 | 13.6 | mild to severe | 66 | 33 | 100 |  |  |  |  |  |  | 
CC[C@H](C)[C@H](NC(=O)[C@H](CCCCN)NC(=O)[C@@H](N)CCCCN)C(=O)N[C@@H](CCCNC(=N)N)C(=O)N[C@H](C(=O)N[C@@H](CCCNC(=N)N)C(=O)N[C@@H](CC(C)C)C(=O)N[C@@H](CO)C(=O)N[C@@H](C)C(=O)NCCCC[C@H](NC(=O)[C@H](C)NC(=O)[C@H](CO)NC(=O)[C@H](CC(C)C)NC(=O)[C@H](CCCNC(=N)N)NC(=O)[C@@H](NC(=O)[C@H](CCCNC(=N)N)NC(=O)[C@@H](NC(=O)[C@H](CCCCN)NC(=O)[C@@H](N)CCCCN)[C@@H](C)CC)C(C)C)C(=O)NCCCC[C@H](NC(=O)[C@H](CCCCNC(=O)[C@H](C)NC(=O)[C@H](CO)NC(=O)[C@H](CC(C)C)NC(=O)[C@H](CCCNC(=N)N)NC(=O)[C@@H](NC(=O)[C@H](CCCNC(=N)N)NC(=O)[C@@H](NC(=O)[C@H](CCCCN)NC(=O)[C@@H](N)CCCCN)[C@@H](C)CC)C(C)C)NC(=O)[C@H](C)NC(=O)[C@H](CO)NC(=O)[C@H](CC(C)C)NC(=O)[C@H](CCCNC(=N)N)NC(=O)[C@@H](NC(=O)[C@H](CCCNC(=N)N)NC(=O)[C@@H](NC(=O)[C@H](CCCCN)NC(=O)[C@@H](N)CCCCN)[C@@H](C)CC)C(C)C)C(=O)NCCC(=O)O)C(C)C [SET-M33 acetate] (I: H-KKIRVRLSAKK[βAla]-OH / II: H-KKIRVRLSAK / III: H-KKIRVRLSA / IV: H-KKIRVRLSA; amide I:10-IV:C, I:11-II:C, II:10-III:C) | 9.62 | 5.1 | 12.4 |  |  |  |  | 1.5 | 3 | not-observable | not-observable | 100 | not-observable [6] | 
CC[C@H](C)[C@H](NC(=O)[C@H](CCCCN)NC(=O)[C@@H](N)CCCCN)C(=O)N[C@@H](CCCNC(=N)N)C(=O)N[C@H](C(=O)N[C@@H](CCCNC(=N)N)C(=O)N[C@@H](CC(C)C)C(=O)N[C@@H](CO)C(=O)N[C@@H](C)C(=O)NCCCC[C@H](NC(=O)[C@H](C)NC(=O)[C@H](CO)NC(=O)[C@H](CC(C)C)NC(=O)[C@H](CCCNC(=N)N)NC(=O)[C@@H](NC(=O)[C@H](CCCNC(=N)N)NC(=O)[C@@H](NC(=O)[C@H](CCCCN)NC(=O)[C@@H](N)CCCCN)[C@@H](C)CC)C(C)C)C(=O)NCCCC[C@H](NC(=O)[C@H](CCCCNC(=O)[C@H](C)NC(=O)[C@H](CO)NC(=O)[C@H](CC(C)C)NC(=O)[C@H](CCCNC(=N)N)NC(=O)[C@@H](NC(=O)[C@H](CCCNC(=N)N)NC(=O)[C@@H](NC(=O)[C@H](CCCCN)NC(=O)[C@@H](N)CCCCN)[C@@H](C)CC)C(C)C)NC(=O)[C@H](C)NC(=O)[C@H](CO)NC(=O)[C@H](CC(C)C)NC(=O)[C@H](CCCNC(=N)N)NC(=O)[C@@H](NC(=O)[C@H](CCCNC(=N)N)NC(=O)[C@@H](NC(=O)[C@H](CCCCN)NC(=O)[C@@H](N)CCCCN)[C@@H](C)CC)C(C)C)C(=O)NCCC(=O)O)C(C)C [SET-M33 chloride] (I: H-KKIRVRLSAKK[βAla]-OH / II: H-KKIRVRLSAK / III: H-KKIRVRLSA / IV: H-KKIRVRLSA; amide I:10-IV:C, I:11-II:C, II:10-III:C) | 10.3 | 6.12 | 22.6 |  |  |  |  | 1.5 | 1.5 |  | not-observable | 100 |  | not-observable

— publication PMC6930567, “NMR Study of the Secondary Structure and Biopharmaceutical Formulation of an Active Branched Antimicrobial Peptide” (Molecules, 2019)
